According to patent US20070135438A1, “INHIBITORS OF HISTONE DEACETYLASE FOR THE TREATMENT OF DISEASE” (KALYPSYS, INC., priority 2005, published 2007):

Columns and labels:
HDAC in cells = experiment: Cellular HDAC inhibition (cellular histone hyperacetylation assays); format: cell-based; details: cellular assay, cell line not stated
Method: 2) Cellular Histone Hyperacetylation Assays:
These two secondary assays evaluates a compound's ability to inhibit HDAC in cells by measuring cellular histone acetylation levels. The cytoblot facilitates quantitative EC50 information for cellular HDAC inhibition. Transformed cell lines (e.g. HeLa, A549, MCF-7) are cultured under standard media and culture conditions prior to plating.
Cells (approx. 2,500/well) are allowed to adhere 10-24 hours to wells of a 384-well Greiner PS assay plate in media containing 1-5% serum. Cells are treated with appropriate compound and specific concentrations for 0 to 24 hours. Cells are washed once with PBS (60 μL) and then fixed (95% ethanol, 5% acetic acid or 2% PFA) for 1 minute at RT (30 μL). Cells are blocked with 1% BSA for 1 hour and washed and stained with antibody (e.g. anti-Acetylated Histone H3, Upstate Biotechnology), followed by washing and incubation with an appropriate secondary antibody conjugated to HRP or fluorophore. For luminescence assays, signal is generated using Luminol substrate (Santa Cruz Biotechnology) and detected using an Aquest plate reader (Molecular Devices).
Cells (4×10^5/well) are plated into Corning 6-well dish and allowed to adhere overnight. Cells are treated with compound at appropriate concentration for 12-18 hours at 37° C. Cells are washed with PBS on ice. Cells are dislodged with rubber policeman and lysed in buffer containing 25 mM Tris, pH7.6; 150 mM NaCl, 25 mM MgCl2, 1% Tween-20, and nuclei collected by centrifugation (7500 g). Nuclei are washed once in 25 mM Tris, pH7.6; 10 mM EDTA, collected by centrifugation (7500 g). Supernatant is removed and histones are extracted using 0.4 M HCl. Samples are centrifuged at 14000 g and supernatants are precipitated in 1 ml cold acetone. The histone pellet is dissolved in water and histones are separated and analyzed by SDS-PAGE Coomassie and immunoblotting (anti-acetylated histone antibodies, Upstate Biotechnology) using standard techniques.

HDAC = experiment: In vitro HDAC-inhibition assay (Fluor de Lys fluorescent substrate); format: biochemical; details: HDAC enzyme source
Method: 1) In Vitro HDAC-Inhibition Assay:
This assay measures a compound's ability to inhibit acetyl-lysine deacetylation in vitro and was used as both a primary screening method as well as for IC50 determinations of confirmed inhibitors. The assay is performed in vitro using an HDAC enzyme source (e.g. partially purified nuclear extract or immunopurified HDAC complexes) and a proprietary fluorescent substrate/developer system (HDAC Quantizyme Fluor de Lys Fluorescent Activity Assay, BIOMOL). The assay is run in 1,536-well Greiner white-bottom plates using the following volumes and order of addition:
Step 1: Enzyme (2.5 μL) source added to plate (from refrigerated container)
Step 2: Compounds (50 nL) added with pin transfer device
Step 3: Fluor de Lys (2.5 μL) substrate added, incubate at RT, 30 minutes
Step 4: Developer (5 μL) solution is added (containing TSA), to stop reaction
Step 5: Plate Reader—data collection
The deacetylated fluorophore is excited with 360 nm light and the emitted light (460 nm) is detected on an automated fluorometric plate reader (Aquest, Molecular Devices).

IC50 (HDAC in cells)	IC50 (HDAC)	Structure (SMILES)
< 1 µM	< 1 µM	CC(=O)SCC(=O)c1ccc(NS(=O)(=O)c2ccc(OCCCN(C)C)cc2)nc1 [Example 1, Thioacetic acid S-(2-{6-[4-(3-dimethylamino-propoxy)-benzenesulfonylamino]-pyridin-3-yl}-2-oxo-ethyl)ester]
< 1 µM	< 1 µM	CC(=O)SCC(=O)c1ccc(NS(=O)(=O)c2ccc(OCCN(C)C)cc2)nc1 [Example 2, Thioacetic acid S-(2-{6-[4-(2-dimethylamino-ethoxy)-benzenesulfonylamino]-pyridin-3-yl}-2-oxo-ethyl) ester]
< 1 µM	–	CC(=O)SCC(=O)c1ccc(NS(=O)(=O)c2ccc(OCC(C)(C)CN(C)C)cc2)nc1 [Example 3, Thioacetic acid S-(2-{6-[4-(3-dimethylamino-2,2-dimethyl-propoxy)-benzenesulfonylamino]-pyridin-3-yl}-2-oxo-ethyl) ester]

Structure (SMILES)	IC50 (HDAC in cells)	IC50 (HDAC)
CC(=O)SCC(=O)c1ccc(NS(=O)(=O)c2ccc(OCCCCN(C)C)cc2)nc1 [Example 4, Thioacetic acid S-(2-{6-[4-(4-dimethylamino-butoxy)-benzenesulfonylamino]-pyridin-3-yl}-2-oxo-ethyl) ester]	< 1 µM	< 1 µM
